{"source": "patent US8841422B2", "about": "“Human androgen receptor alternative splice variants” (University of Maryland, Baltimore, priority 2008, dated 2014)", "key": {"AR": {"test_system": "AR", "assay_type": "cell-based, human", "details": "LNCaP cells", "quoted_text": "(H) LNCaP cells were infected with (+) or without (−) the lentivirus encoding AR shRNA (shAR) as described previously. At 6 hr postinfection, the cells were transfected with ARR2-Luciferase reporter along with AR3 or the codon-switched wild-type AR expressing vector (ARcs).\nBriefly, cells grown in 24-well plates were transiently transfected with different plasmid constructs using LipofectAM1NE 2000 (Invitrogen) for LNCaP cells and FuGENE HI) (Roche) for COS-1 cells following the manufacturer's instruction. […] Dual-Luciferase assays were performed according to the protocol from the manufacturer (Promega)."}, "80 kD ARs": {"test_system": "80 kD ARs", "test": "Western blot with anti-AR after AR shRNAs in CWR-R1 cells", "assay_type": "cell-based, human", "details": "48 hr post infection", "from_the_text": "FIGS. 1A-H: Cloning of novel alternative splice AR isoforms. (A) Presence of the short forms of AR in prostate cancer cells. Total cell lysates of different prostate cancer cells were blotted with anti-AR (441) antibody (upper) and anti-Actin antibody (lower). (B) Selective knockdown of AR long/short forms by AR shRNAs. CWR-R1 cells were infected with the lentivirus encoding AR shRNAa, AR shRNAb, and AR shRNAc (shARa, shARb and shARc) targeting different exons of AR as indicated in (D). At 48 hr post infection, the total cell lysates were subjected to western blot with anti-AR antibody. The same blot was stained with Coomassie Blue to show the protein loading (right panel). (C) Presence of AR isoform transcripts in CWR-R1 cells. Total RNA was isolated from CWR-R1 cells and reverse transcribed. The primer derived from AR shRNAc sequence was used to perform a rapid amplification of cDNA 3′-end (3′-RACE) with the RACE oligo-dT primer or a control primer. (D) Schematic structure of the human AR splice variants. The hatched cassettes stand for the cryptic exons. Solid thick lines represent the transcribed sequences. (E) Expression of AR isoforms in prostate cancer cells. The relative expression levels of AR, AR3, AR4 and AR5 were quantified using real-time PCR with the isoform specific primer pair sets described in Methods (left panel). The AR level in LNCaP cells was arbitrarily set as 1. The expression levels of AR3 in LNCaP and C-8 1 cells were further plotted with a higher resolution. *p<0.05 (right panel). (F) Transcriptional activity of AR isoforms. COS-1 cells were transfected with ARR.2-luciferase reporter gene together with AR, AR3, AR4 and AR5 expression vector. At 24 hr posttransfection, the cells were lysed and the luciferase activity was measured. The data were expressed as relative promoter activity, the changes of luciferase activity relative to the untreated control (arbitrarily set as 1). (G) COS-1 cells were transfected with ARR2-Luciferase reporter along with increasing doses of AR3 or AR expressing vector. […]"}, "CWR-R1 xenograft": {"test_system": "CWR-R1 xenograft", "test": "In vivo tumor growth in xenograft model, castrated male nude mice", "details": "CWR-R1 cells infected 48 hr before s.c. injection", "method": "(§1) FIGS. 4A-D: AR3 promotes androgen-independent growth of prostate cancer cells. LNCaP cells were infected with lentivirus encoding AR3 expression construct (AR3) or the control vector. After 2-week culture in androgen-depleted condition, the cells were visualized by Coomassie Blue staining (A). At 48 hr post infection, the cells were injected into the castrated SCID mice and the growth of the tumor cells were monitored weekly. The result represent the mean tumor volume±SE (n=5 mice/group), *p<0.05 Inset, Western blots of anti-AR3 and anti-AR of the LNCaP xenograft tumor lysates (B). CWR-R1 and 22Rv1 cells were infected with lentivirus encoding AR3 shRNA-1 (shAR3) or control shRNA (shCon). After 2 weeks culture in androgen-depleted condition, the cells were visualized by Coomassie Blue staining (C). At 48 hr postinfection, the cells were injected into the castrated male nude mice. The growth of the tumors was monitored weekly. The result represents the mean tumor volume±SE (n=5 mice/group), *p<0.05 (D). […]\n(§2) In vitro cell growth assay and In vivo tumor growth in xenograft models LNCaP, CWR-R1 and 22Rv1 cells were infected with the lentiviruses bearing the shRNA sequences and the AR3 expression constructs as indicated. […] The volumes of the tumors formed on both sides were measured weekly and calculated by using the formula: 0.5236×r1^2×r2 (r1<r2). […]"}, "22Rv1 xenograft": {"test_system": "22Rv1 xenograft", "test": "In vivo tumor growth in xenograft model, castrated male nude mice", "details": "22Rv1 cells infected 48 hr before s.c. injection", "method": "as §1, §2"}, "CWR-R1 cells": {"test_system": "CWR-R1 cells", "test": "In vitro cell growth assay in androgen-depleted condition", "assay_type": "cell-based, human", "details": "CWR-R1, 2 weeks culture, Coomassie Blue staining", "method": "as §1, §2"}, "22Rv1 cells": {"test_system": "22Rv1 cells", "test": "In vitro cell growth assay in androgen-depleted condition", "assay_type": "cell-based, human", "details": "22Rv1, 2 weeks culture, Coomassie Blue staining", "method": "as §1, §2"}}}
{"molecule": "C[C@]12CCC(=O)C[C@@H]1CC[C@@H]1[C@@H]2CC[C@]2(C)[C@@H](O)CC[C@@H]12", "note": "[DHT]", "values": [{"measurement": "activity of endogenous AR or codon-switched wild-type AR (luciferase reporter)", "setting": "AR", "value": "induced"}]}
{"molecule": "CC(O)(CS(=O)(=O)c1ccc(F)cc1)C(=O)Nc1ccc(C#N)c(C(F)(F)F)c1", "note": "(stereo not drawn) [casodex]", "values": [{"measurement": "activity of endogenous AR or codon-switched wild-type AR (luciferase reporter)", "setting": "AR", "value": "blocked"}]}
{"molecule": "shARa: shRNA specific for human AR gene, lentiviral pLKO.1-puro vector from Sigma, targeting Exon 8, SEQ ID NO: 10 (CCGGCCTGCTAATCAAGTCACACATCTCGAGATGTGTGACTTGATTAGCAGGTTTTT)", "values": [{"measurement": "knock-down of 80 kD ARs", "setting": "80 kD ARs", "value": "barely affected"}]}
{"molecule": "shARb: shRNA specific for human AR gene, lentiviral pLKO.1-puro vector from Sigma, targeting Exon 5, SEQ ID NO: 11 (CCGGCACCAATGTCAACTCCAGGATCTCGAGATCCTGGAGTTGACATTGGTGTTTTT)", "values": [{"measurement": "knock-down of 80 kD ARs", "setting": "80 kD ARs", "value": "barely affected"}]}
{"molecule": "shARc: shRNA specific for human AR gene, lentiviral pLKO.1-puro vector from Sigma, targeting the 1st Exon, SEQ ID NO: 12 (CCGGCGCGACTACTACAACTTTCCACTCGAGTGGAAAGTTGTAGTAGTCGCGUTTT)", "values": [{"measurement": "knock-down of 80 kD ARs", "setting": "80 kD ARs", "value": "efficiently knocked down"}]}
{"molecule": "shAR3-1: lentivirus encoded shRNA specific for AR3 isoform, made using SEQ ID NOS: 13 and 14 (nucleic acid) chain 1: TGTAATAGTGGTTACCACTCTTCAAGAGAGAGTGGTAACCACTATTACTTTTTTTTC chain 2: TCGAGAAAAAAAAGTAATAGTGGTTACCACTCTCTCTTGAAGAGTGGTAACCACTATTACA", "values": [{"measurement": "tumor growth in castrated nude mice", "setting": "CWR-R1 xenograft", "value": "attenuated their growth"}, {"measurement": "tumor growth in castrated nude mice", "setting": "22Rv1 xenograft", "value": "attenuated their growth"}, {"measurement": "cell growth in androgen-depleted medium", "setting": "CWR-R1 cells", "value": "attenuated their growth"}, {"measurement": "cell growth in androgen-depleted medium", "setting": "22Rv1 cells", "value": "attenuated their growth"}]}
